Test results published in US4472305A, “Hexapeptide amides” (Sterling Drug Inc., priority 1983, dated 1984).
Where “and” joins values, the source holds several entries; their conditions need not be identical. Identical values can stand only once. Non-standard residues stand in square brackets, D forms with d. Residues, ends and D or L forms follow the SMILES beside them. Phe(4-Cl) = N[C@@H](Cc1ccc(Cl)cc1)C(=O)O; dNMeW = CN[C@H](Cc1c[nH]c2ccccc12)C(=O)O; NMeF = CN[C@@H](Cc1ccccc1)C(=O)O; hPhe = N[C@@H](CCc1ccccc1)C(=O)O; NMeL = CN[C@@H](CC(C)C)C(=O)O; NMeNle = CCCC[C@H](NC)C(=O)O; NMeM = CN[C@@H](CCSC)C(=O)O; Nle = CCCC[C@H](N)C(=O)O

Tests used:
SP receptor [1] = target: T1, SP receptor (Rattus norvegicus, UniProt P14600); test: 3H-SP binding test, rat brain tissue; settings: rat brain tissue (Examples 35-42); for inhibition at 30 µM: 30 μM test compound
T1 construct: from tissue; host or cells: rat submaxillary gland (crude tissue suspension)
T1 sequence (P14600 whole entry): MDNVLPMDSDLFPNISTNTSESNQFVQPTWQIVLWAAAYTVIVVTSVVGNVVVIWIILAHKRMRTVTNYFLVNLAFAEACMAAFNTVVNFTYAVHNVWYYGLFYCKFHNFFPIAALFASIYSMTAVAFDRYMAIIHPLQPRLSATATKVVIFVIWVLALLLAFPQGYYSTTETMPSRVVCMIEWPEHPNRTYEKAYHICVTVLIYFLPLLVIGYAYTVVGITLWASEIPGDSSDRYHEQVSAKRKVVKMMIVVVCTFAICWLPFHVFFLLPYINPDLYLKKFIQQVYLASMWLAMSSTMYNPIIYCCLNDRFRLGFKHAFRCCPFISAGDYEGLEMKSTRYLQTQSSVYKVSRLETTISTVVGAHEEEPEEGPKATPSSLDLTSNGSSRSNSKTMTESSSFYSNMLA
Method: (§1) Crude rat submaxillary gland or brain tissue is suspended in buffer containing protease inhibitors (and calcium ions and magnesium ions in the case of brain tissue) and incubated under nitrogen atmosphere with ^3 H-SP and test compound. The bound SP is then separated from free SP by filtration and quantitated by liquid scintillation spectroscopy. This test meets the criteria of reversibility, saturability, sensitivity to known SP agonists and antagonists, and specificity for an SP receptor binding assay.
(§2) With regard to reversibility, addition of unlabelled SP causes a gradual decrease in bound ^3 H-SP, showing that SP is not irreversibly bound to the receptors in the tissue. With regard to saturability, the amount of bound ^3 H-SP in the preparation increases in direct proportion to the concentration of ^3 H-SP added until a saturation point is reached. […] With regard to sensitivity, known SP agonists and antagonists inhibit ^3 H-SP binding.
(§3) The results are expressed either as percent inhibition at a concentration of 30 micromoles per liter (μM) or as an IC50 calculated as the concentration in micromoles per liter.
(§4) The ^3 H-SP binding test results were obtained using rat submaxillary gland tissue for Examples 1-34 and rat brain tissue for Examples 35-42.

rat vas deferens = test: Rat vas deferens test (SP antagonist effect); assay type: cell-based; settings: reversal of potentiation by 10 μM SP of electrically induced contractions
Method: Rat vasa deferentia are suspended in organ baths containing warmed, oxygenated Krebs solution and repetitively field-stimulated (0.1 Hz., 1 msec. duration, monophasic pulses) through platinum wire ring electrodes. Rapid, regular contractions of the muscle are recorded via transducers on a Grass polygraph. SP and related tachykinins added to the bath evoke a dose-dependent, stable potentiation of these electrically-induced contractions. For routine screening, a 10 μM concentration of SP is applied to all tissues to produce a 2-6 fold increase in electrically-stimulated twitch height. SP antagonist compounds (1-30 μM) produce an immediate, dose-related reversal of the response of the tissue to SP, which is quantified by determination of an IC50.

SP receptor [2] = target: T1, SP receptor; test: 3H-SP binding test, rat submaxillary gland tissue; settings: for inhibition at 30 µM: read-out: 3H-SP Binding % Inhibition; for IC50: 3H-SP Binding IC50(μM), rat submaxillary gland tissue (Examples 1-34)
Method: as §1, §2, §3, §4

[3] = system: longitudinal muscle of guinea pig terminal ileum; test: Guinea pig ileum test (SP agonist and antagonist effect); assay type: cell-based; settings: for Guinea Pig Ileum pA2: antagonism of reference agonist, Schild plot analysis; for Guinea Pig Ileum % Agonism (potency relative to SP): contraction of ileum longitudinal muscle strips, relative molar potency vs SP
Method: Strips of longitudinal muscle derived from terminal ileum of adult male guinea pigs (Charles River, 400-600 g.) are mounted in 5-ml. organ baths containing oxygenated Krebs solution containing 1 μM each of atropine and pyrilamine maintained at 30-33 C. and connected to isometric transducers. Following tissue equilibration and repeated washing (45-60 min.), SP or an appropriate reference agonist is added cumulatively to the bath and contractions of the tissue are recorded. The bath is washed thoroughly and 30-45 min. is allowed to elapse before construction of a second reference agonist curve to assure reproducibility of the responses. Test compounds are similarly evaluated for agonist activity up to a maximum concentration of 10-100 μM. […] When appropriate, relative molar potency ratios are calculated (EC50 reference/ED50 test drug). […] The effects of several concentrations of test antagonist, pooled across separate experiments, provide dose-ratio (EC50 shift) data for a standard Schild plot analysis, with computation of the pA2.

Row | inhibition at 30 µM (SP receptor [1]) | Compound | IC50 (rat vas deferens) | inhibition at 30 µM (SP receptor [2]) | Guinea Pig Ileum pA2 [3] | other results
1 | 46% | CSCC[C@H](NC(=O)[C@H](CC(C)C)NC(=O)[C@@H](Cc1c[nH]c2ccccc12)NC(=O)CNC(=O)[C@@H](Cc1c[nH]c2ccccc12)NC(=O)[C@@H]1CCCN1)C(N)=O [Example 39, HPro-DTrp-Gly-DTrp-Leu-MetNH2] (H-P[dW]G[dW]LM-NH2) |  |  |  | 
2 | 81% | CCCC[C@@H](C(N)=O)N(C)C(=O)[C@H](CC(C)C)NC(=O)[C@@H](Cc1c[nH]c2ccccc12)NC(=O)[C@H](Cc1ccccc1)NC(=O)[C@@H](Cc1c[nH]c2ccccc12)NC(=O)[C@@H]1CCCN1 [Example 42, HPro-DTrp-Phe-DTrp-Leu-MeNleNH2] (H-P[dW]F[dW]L[NMeNle]-NH2) |  |  |  | 
3 |  | CSCC[C@H](NC(=O)[C@H](CC(C)C)NC(=O)[C@@H](Cc1ccccc1)NC(=O)[C@H](CCc1ccccc1)NC(=O)[C@@H](Cc1ccccc1)NC(=O)[C@@H]1CCCN1)C(N)=O [Example 29, HPro-DPhe-Hfe-DPhe-Leu-MetNH2] (H-P[dF][hPhe][dF]LM-NH2) | > 40 µM | 64% |  | 
4 |  | CSCC[C@H](NC(=O)[C@H](CC(C)C)NC(=O)[C@@H](Cc1ccccc1)NC(=O)[C@H](Cc1ccccc1)NC(=O)[C@@H](Cc1ccccc1)NC(=O)[C@@H]1CCCN1)C(N)=O [Example 23, HPro-DPhe-Phe-DPhe-Leu-MetNH2] (H-P[dF]F[dF]LM-NH2) | 20 µM | 53% | 5.4 | Guinea Pig Ileum % Agonism (potency relative to SP) [3]: < 0.001%
5 | 79% | CSCC[C@H](NC(=O)[C@H](CC(C)C)NC(=O)[C@@H](Cc1c[nH]c2ccccc12)N(C)C(=O)[C@H](Cc1ccccc1)NC(=O)[C@@H](Cc1c[nH]c2ccccc12)NC(=O)[C@@H]1CCCN1)C(N)=O [Example 41, HPro-DTrp-Phe-MeDTrp-Leu-MetNH2] (H-P[dW]F[dNMeW]LM-NH2) |  |  |  | IC50 (SP receptor [1]): 13.3 µM
6 |  | CCCC[C@H](NC(=O)[C@H](CC(C)C)NC(=O)[C@@H](Cc1ccccc1)NC(=O)[C@H](Cc1ccccc1)NC(=O)[C@@H](Cc1ccccc1)NC(=O)[C@@H]1CCCN1)C(N)=O [Example 31, HPro-DPhe-Phe-DPhe-Leu-NleNH2] (H-P[dF]F[dF]L[Nle]-NH2) | 30 µM | 47% |  | 
7 |  | CSCC[C@H](NC(=O)[C@H](CC(C)C)NC(=O)[C@@H](Cc1c[nH]c2ccccc12)NC(=O)[C@H](Cc1ccccc1)NC(=O)[C@@H](Cc1c[nH]c2ccccc12)NC(=O)[C@@H]1CCCN1)C(N)=O [Example 17, HPro-DTrp-Phe-DTrp-Leu-MetNH2] (H-P[dW]F[dW]LM-NH2) | 4.1 µM |  | 5.7 | Guinea Pig Ileum % Agonism (potency relative to SP) [3]: < 0.01%; IC50 (SP receptor [2]): 9.7 µM and 16.1 µM
8 | 68% | CSCC[C@H](NC(=O)[C@H](CC(C)C)NC(=O)[C@@H](Cc1c[nH]c2ccccc12)NC(=O)[C@H](Cc1ccccc1)N(C)C(=O)[C@@H](Cc1c[nH]c2ccccc12)NC(=O)[C@@H]1CCCN1)C(N)=O [Example 38, HPro-DTrp-MePhe-DTrp-Leu-MetNH2] (H-P[dW][NMeF][dW]LM-NH2) |  |  |  | 
9 |  | CSCC[C@H](NC(=O)[C@H](CC(C)C)NC(=O)[C@@H](Cc1c[nH]c2ccccc12)NC(=O)[C@H](Cc1ccccc1)NC(=O)[C@@H](Cc1ccccc1)NC(=O)[C@@H]1CCCN1)C(N)=O [Example 12, HPro-DPhe-Phe-DTrp-Leu-MetNH2] (H-P[dF]F[dW]LM-NH2) | 13 µM | 69% | 5.6 | Guinea Pig Ileum % Agonism (potency relative to SP) [3]: 0.0001%; IC50 (SP receptor [2]): 26.8 µM
10 | 9% | CSCC[C@H](NC(=O)[C@H](CC(C)C)NC(=O)CNC(=O)[C@H](Cc1ccccc1)NC(=O)[C@H](Cc1ccccc1)N(C)C(=O)[C@@H]1CCCN1)C(N)=O [Example 40, HPro-MePhe-Phe-Gly-Leu-MetNH2] (H-P[NMeF]FGLM-NH2) |  |  |  | 
11 | 62% | CSCC[C@H](NC(=O)[C@H](CC(C)C)NC(=O)CNC(=O)[C@H](Cc1ccc(Cl)cc1)NC(=O)[C@H](Cc1ccc(Cl)cc1)NC(=O)[C@@H]1CCCN1)C(N)=O [Example 37, HPro-Pcp-Pcp-Gly-Leu-MetNH2] (H-P[Phe(4-Cl)][Phe(4-Cl)]GLM-NH2) |  |  |  | 

Row | Compound | inhibition at 30 µM (SP receptor [1]) | IC50 (rat vas deferens) | inhibition at 30 µM (SP receptor [2]) | Guinea Pig Ileum pA2 [3] | other results
12 | CSCC[C@H](NC(=O)[C@H](CC(C)C)N(C)C(=O)[C@@H](Cc1c[nH]c2ccccc12)NC(=O)[C@H](Cc1ccccc1)NC(=O)[C@@H](Cc1c[nH]c2ccccc12)NC(=O)[C@@H]1CCCN1)C(N)=O [Example 35, HPro-DTrp-Phe-DTrp-MeLeu-MetNH2] (H-P[dW]F[dW][NMeL]M-NH2) | 46% |  |  | 6.3 | IC50 (SP receptor [1]): 43.6 µM
13 | CSCC[C@@H](C(N)=O)N(C)C(=O)[C@H](CC(C)C)NC(=O)[C@@H](Cc1c[nH]c2ccccc12)NC(=O)[C@H](Cc1ccccc1)NC(=O)[C@@H](Cc1c[nH]c2ccccc12)NC(=O)[C@@H]1CCCN1 [Example 36, HPro-DTrp-Phe-DTrp-Leu-MeMetNH2] (H-P[dW]F[dW]L[NMeM]-NH2) | 82% |  |  | 6.3 | IC50 (SP receptor [1]): 11.5 µM
